Measured values: PMC3495945, “Org 214007-0: A Novel Non-Steroidal Selective Glucocorticoid Receptor Modulator with Full Anti-Inflammatory Properties and Improved Therapeutic Index” (PLoS ONE, 2012)
Where two headings read alike, the source gives them in different places.

Tests used:
THP-1 cells = assay: THP-1 induction of FKBP51, GILZ, DUSP1; type: cell-based, human; settings: for EC50: Homo sapiens, THP-1, no stimulus; for Max. eff., DUSP1 induction / Max. eff., FKBP51 induction / Max. eff., GILZ induction: THP-1, prednisolone = 100%
Experimental: THP-1 cells were incubated with glucocorticoid in the presence of either DMSO (control) or IFNγ/TNFα (220 ng/ml/375 ng/ml). After 6 hours total RNA was isolated and further processed for microarray hybridization as described for the HepG2 cells. The data from all microarray experiments have been deposited in the NCBI Gene Expression Omnibus (GEO) under accession number (identifier will be included in proof). […] Expression of FKBP51, MCP-1, IL-6 and IL-8 protein was measured by specific […]; #A[…] [MCP-1], #A[…] [IL-6] and #A[…] [IL-8]) according to the manufacturer manual. […] Expression of FKBP51, DUSP1 and GILZ was measured by Q-PCR according to the same procedure as described for the HepG2 cells. In this case the following primer-pairs were used: for GAPDH: [NT] and [NT]; for FKBP51: [NT] and [NT]; for DUSP1: [NT] and [NT]; for GILZ: [NT] and [NT]. For the evaluation of protein expression, cells were incubated overnight with a whole dose range of compounds. Supernatants were collected to determine cytokine levels and cell lysates were generated by repeated freeze-thaw cycles to measure expression of FKBP51 protein. Expression of FKBP51, MCP-1, IL-6 and IL-8 was measured by specific […]; #A[…] [MCP-1], #A[…] [IL-6] and #A[…] [IL-8]) according to the manufacturer manual. […] Samples were incubated for 60 min at 23 C. […] Plates were measured using an EnVision-Alpha Reader.

[1] = system: human neonatal foreskin fibroblasts; assay: BioMAP assay HDF3CGF; type: cell-based; settings: 1 μM, prednisolone = 100%
Experimental: Next, effects of Org 214007-0 on the cytokine release by primary human whole blood cells treated with either LPS or anti-CD28/PMA were tested. […] These assays make use of different types of primary human cells, in this case coronary artery smooth muscle cells and neonatal foreskin fibroblasts, in an inflammatory environment, [28]. […] When all repressed and induced proteins are taken into account, a relative TI value for Org 214007-0 could be deduced of 1.7 in coronary artery smooth muscle cells and of 2.2 in neonatal foreskin fiboblasts.

[2] = system: muscle tissue from arthritic mice; assay: Microarray on muscle tissue mRNA from CIA mice; type: in vivo, mouse; settings: day 21, 2.5 hours after final oral dose, 1.5 mg/kg prednisolone or 0.3 mg/kg Org 214007-0, prednisolone = 100%
Source text: Besides these groups of mice, one group of healthy mice (sham-immunized and vehicle-treated) was included. Collected tissue was used to isolate mRNA for microarray analysis. […] We also calculated a mean fold change for all induced and repressed genes by both compounds derived from this microarray. […] Two and a half hours after the final treatment animals were sacrificed and samples were collected from the thigh muscle (musculus tensor fasciae latae and musculus rectus femoris). Samples were stored immediately at −80°C and send to Covance (Princeton, New Jersey) for RNA extraction and subsequent analysis of gene expression on the Mouse Genome 430A 2.0 array. For statistical analysis, the. CEL files obtained after hybridization were analyzed with the R (www.r-project.org) and the BioConductor software package (www.bioconductor.org) as described previously. Normalization was done using gcrma. Building of the experimental design and calculation of the ratios was done with the limma package. Differentially expressed probe sets were selected on basis of the fold change and the adjusted p-value (Benjamini-Hochberg correction). Multivariate data analysis and clustering was done with standard methods in the R software package (www.r-project.org). A therapeutic index for Org 214007-0 was calculated in the same way as was described for the THP-1 microarray data.

[3] = system: hepatic glucose metabolism; assay: Mouse MIDA model for liver glucose metabolism; type: in vivo; settings: prednisolone 10 mg/kg, Org 214007-0 1.5 mg/kg; for glucokinase flux rate / gluconeogenic flux (de novo synthesis of glucose-6-phosphate) / glucose-6-phosphatase flux / glycogen phosphorylase flux / glycogen synthase flux rate / liver glucose balance / liver glycogen balance / metabolic clearance rate of blood glucose: 7 days p.o.; for fasting blood glucose levels vs vehicle: oral daily 7 days
Experimental: Eighteen hours after the last oral treatment and 9 hours after start of starvation, blood samples were taken from the tail vein and directly used for glucose measurements using “One touch Ultra” glucose meter from Lifescan EuroFlash (Lifescan Benelux Beerse, Belgium). The mouse MIDA study was performed as described previously by van Dijk et al., [52]. […] On the third day, mice were cannulated in the right jugular vein. After 7 days of treatment, mice were placed in small Plexiglas cages, which allowed collection of blood samples frequently in freely moving mice. Twenty four hours after the final dose and after a 9 hours starving period, a tail vein blood sample was used for a glucose measurement after which mice were shortly anesthetized to attach the infusion lines before the experiment. Filter paper was placed under the wired floor cages to collect urine samples and replaced hourly. Mice received an infusion of a sterilized aqueous solution containing [U-^13C]glucose (13 μmol/ml), [2-^13C]glycerol (160 μmol/ml), [1-^2H]galactose (33 μmol/ml) and paracetamol (1 mg/ml) at a rate of 0.54 ml/hr for 6 hours. During the experiment blood glucose was measured and blood spots for GCMS measurements were collected from tail tips just before the start of the infusion and at hourly intervals. Blood spots and urine filter papers were air-dried and stored at room temperature until analysis. Glucose and paracetamol-glucuronic acid (Par-GLcUa) were extracted from blood spot and urine filter papers, respectively, derivatised, and measured by GC-MS, essentially as described previously, [52]. The fractional isotopomer distribution according to GC-MS was corrected for fractional distribution due to the natural abundance of ^13C by multiple linear regression to obtain the excess mole fraction of mass isotopomers M0-M6 due to incorporation of infused labeled carbohydrates. From isotope dilution and infusion rates, the flux rates of the following metabolic pathways could be calculated: 1) de novo synthesis of G6P, 2) glucokinase, 3) glucose-6-phosphatase, 4) glycogenolysis, and 5) glycogen synthesis. The method of calculation was performed as described before, [52], [53].

[4] = read-out: EC50, DUSP1 induction
[5] = read-out: EC50, FKBP51 induction

| Structure (SMILES) | EC50 (THP-1 cells; [4]) | EC50 (THP-1 cells; [5]) | EC50 (THP-1 cells; read-out: EC50, GILZ induction) | Max. eff., DUSP1 induction (THP-1 cells) | Max. eff., FKBP51 induction (THP-1 cells) | Max. eff., GILZ induction (THP-1 cells) | Max. eff., activation of PAI-1 [1] | Max. eff., mean induction of genes, microarray [2] | Max. eff., mean repression of genes, microarray [2] | glucokinase flux rate [3] | gluconeogenic flux (de novo synthesis of glucose-6-phosphate) [3] | glucose-6-phosphatase flux [3] | glycogen phosphorylase flux [3] | glycogen synthase flux rate [3] | liver glucose balance [3] | liver glycogen balance [3] | metabolic clearance rate of blood glucose [3] | fasting blood glucose levels vs vehicle [3] |
| --- | --- | --- | --- | --- | --- | --- | --- | --- | --- | --- | --- | --- | --- | --- | --- | --- | --- | --- |
| Cc1nnsc1C(=O)N[C@H]1CCN2c3ccc(C#N)cc3[C@@H](C)c3ccccc3[C@@H]2C1 [Org 214007-0] | 6.4 nM | 8 nM | 13.7 nM | 41 (±6) % | 42 (±8) % | 13 (±5) % | 55% | 25.7% | 87.7% | no significant effects | Neither Org 214007-0 nor prednisolone, at equi-efficacious dosages, effects | Neither the glucose-6-phosphatase flux (A) nor the glycogen phosphorylase flux (B) were affected | Neither the glucose-6-phosphatase flux (A) nor the glycogen phosphorylase flux (B) were affected | no significant effects | not affected | not effected | Neither Org 214007-0 nor prednisolone, at equi-efficacious dosages, effects | did not affect |
| C[C@]12C=CC(=O)C=C1CC[C@@H]1[C@@H]2[C@@H](O)C[C@@]2(C)[C@H]1CC[C@]2(O)C(=O)CO [prednisolone, reference compound] | 67.4 nM | 65.8 nM | 60.2 nM | 100% | 100% | 100% | 100% | 100% | 100% | significantly decreased | no change | Neither the glucose-6-phosphatase flux (A) nor the glycogen phosphorylase flux (B) were affected | Neither the glucose-6-phosphatase flux (A) nor the glycogen phosphorylase flux (B) were affected | significantly decreased | significantly changed | significantly changed | Neither Org 214007-0 nor prednisolone, at equi-efficacious dosages, effects | significantly elevated |
